Experimental findings from PubChem BioAssay AID1259408 (Genetic Toxicology Data Bank (GENE-TOX), 2018) are described below.

Calls of active or inactive are those of the source. The rule behind the calls is not given here.

For the data set, the system named is GENE-TOX genotoxicity assays, various organisms and cells. The data set is described as follows: GENE-TOX mutagenicity studies. Particulars: Evaluation Type: Evaluation A (Pre-1980). The source says:
GENE-TOX provides genetic toxicology (mutagenicity) test data from expert peer review of open scientific literature for more than 3,000 chemicals from the United States Environmental Protection Agency (EPA). GENE-TOX was established to select assay systems for evaluation, review data in the scientific literature, and recommend proper testing protocols and evaluation procedures for these systems.
GENE-TOX covers the years 1991 - 1998. It is no longer updated.
This is an archive assay for GENE-TOX mutagenicity studies.

With `COS(C)(=O)=O`, the mutagenic call reads like this: (Species/Cell Type: Arabidopsis species, Assay Type: Gene mutation, Assay Code: ARM+) “active; positive”; (Species/Cell Type: Aspergillus nidulans, Assay Type: Reverse gene mutation, Assay Code: ASR+) “active; positive”; (Species/Cell Type: Chinese hamster lung (V79) cells, Assay Type: Forward gene mutation at the HPRT or ouabain locus, Assay Code: V79+) “active; positive”; (Species/Cell Type: Chinese hamster ovary (CHO) cells, Assay Type: Forward gene mutation at the HPRT locus, Assay Code: CHO+D, Dose Response: With dose response) “active; positive”; (Species/Cell Type: Drosophila melanogaster, Assay Type: Sex-linked recessive lethal gene mutation, Assay Code: SRL+) “active; positive”; (Species/Cell Type: Drosophila melanogaster, Sex: Male, Assay Type: Heritable translocation test, chromosome aberrations, Assay Code: DHT+) “active; positive”. The mutagenic call is “active; positive” (Species/Cell Type: Escherichia coli WP2, Assay Type: Tryptophan reverse gene mutation, Assay Code: WP2+D, Dose Response: With dose response); “active; positive” (Species/Cell Type: Escherichia coli WP2 UVRA, Assay Type: Tryptophan reverse gene mutation, Assay Code: WPU+D, Dose Response: With dose response); “active; positive” (Species/Cell Type: Escherichia coli polA (W3119 vs P3478), Assay Type: Rec-assay, DNA effects (bacterial DNA repair), Assay Code: RE1+); “active; positive” (Species/Cell Type: Escherichia coli, Saccharomyces cerevisiae, Neurospora crassa, human lymphoid cells, Assay Type: Forward and reverse gene mutation, lethal mutation, mitotic recombination and gene conversion, chromosome effects, DNA e, Assay Code: HM9+); “no conclusion” (Species/Cell Type: F1 mouse, Sex: Male, Assay Type: Sperm morphology, Assay Code: SPFT); “active; positive” (Species/Cell Type: Glycine max (soybean), Assay Type: Gene mutation, Assay Code: GLM+). In addition, the mutagenic call (Species/Cell Type: Hordeum vulgare (barley), Assay Type: Chromosome aberrations, Assay Code: HOC+) was “active; positive”; the mutagenic call (Species/Cell Type: Hordeum vulgare (barley), Assay Type: Gene mutation, Assay Code: HOM+D, Dose Response: With dose response) is “active; positive”; the mutagenic call (Species/Cell Type: Human diploid fibroblasts, Assay Type: Unscheduled DNA synthesis (UDS) in vitro, DNA effects, Assay Code: UDH+D, Dose Response: With dose response) was “active; positive”; the mutagenic call (Species/Cell Type: Human lymphocytes or leukocytes, Assay Type: Chromosome aberrations in vivo, Assay Code: CY8+) was “active; positive”; the mutagenic call (Species/Cell Type: Human lymphocytes, Assay Type: Micronucleus test in vitro, chromosome aberrations, Assay Code: MN7+) is “active; positive”; the mutagenic call (Species/Cell Type: Human lymphocytes, Assay Type: Sister-chromatid exchange (SCE) in vitro, Assay Code: SCL+) was “active; positive”. For the same compound, the mutagenic call runs as follows: (Species/Cell Type: Human, Assay Type: Sister-chromatid exchange (SCE) in vitro, Assay Code: SC1+D, Dose Response: With dose response) “active; positive”; (Species/Cell Type: Mammalian germ cells, Sex: Male, Assay Type: Chromosome aberrations in vivo, Assay Code: CY9+) “active; positive”; (Species/Cell Type: Mammalian oocytes or early embryo, Assay Type: Chromosome aberrations in vivo, Assay Code: CYO+D, Dose Response: With dose response) “active; positive”; (Species/Cell Type: Mammalian polychromatic erythrocytes, Assay Type: Micronucleus test, chromosome aberrations, Assay Code: MNT+) “active; positive”; (Species/Cell Type: Mouse germ cells, Sex: Male, Assay Type: Unscheduled DNA synthesis (UDS) in vivo, DNA effects, Assay Code: UDT+) “active; positive”; (Species/Cell Type: Mouse lymphoma (L5178Y) cells, Assay Type: Forward gene mutation at the thymidine kinase (TK) locus, chromosome aberrations, Assay Code: L51+) “active; positive”. In addition, the mutagenic call reads like this: (Species/Cell Type: Mouse, Sex: Female, Assay Type: Spot test, gene mutation, Assay Code: MST+) “active; positive”; (Species/Cell Type: Mouse, Sex: Male, Assay Type: Heritable translocation test, chromosome aberrations, Assay Code: HTT+) “active; positive”; (Species/Cell Type: Mouse, Sex: Male, Assay Type: Specific locus test, gene mutation, Assay Code: SLT+) “active; positive”; (Species/Cell Type: Mouse, Sex: Male, Assay Type: Sperm morphology, Assay Code: SPI+) “active; positive”; (Species/Cell Type: Neurospora crassa, Assay Type: Forward gene mutation, Assay Code: NEF+) “active; positive”; (Species/Cell Type: Nonhuman, Assay Type: Sister-chromatid exchange (SCE) in vitro, Assay Code: SC2+D, Dose Response: With dose response) “active; positive”. The mutagenic call (Species/Cell Type: Nonhuman, Assay Type: Sister-chromatid exchange (SCE) in vivo, Assay Code: SC3+D, Dose Response: With dose response) was “active; positive”; the mutagenic call (Species/Cell Type: Rabbit, Sex: Male, Assay Type: Sperm morphology, Assay Code: SPRT) was “no conclusion”; the mutagenic call (Species/Cell Type: Rat primary hepatocytes, Assay Type: Unscheduled DNA synthesis (UDS) in vitro, DNA effects, Assay Code: UDP+) was “active; positive”; the mutagenic call (Species/Cell Type: Rodents, Sex: Male, Assay Type: Dominant lethal test, Assay Code: DLT+D, Dose Response: With dose response) was “active; positive”; the mutagenic call (Species/Cell Type: Saccharomyces cerevisiae, Assay Type: Forward gene mutation, Assay Code: YEF+) was “active; positive”; the mutagenic call (Species/Cell Type: Saccharomyces cerevisiae, Assay Type: Mitotic recombination or gene conversion, Assay Code: YEC+) was “active; positive”. Besides, the mutagenic call was “active; positive” (Species/Cell Type: Saccharomyces cerevisiae, Assay Type: Mitotic recombination or gene conversion, Assay Code: YEH+); “active; positive” (Species/Cell Type: Saccharomyces cerevisiae, Assay Type: Reverse gene mutation, Assay Code: YER+); “active; positive” (Species/Cell Type: Salmonella typhimurium (one or more of the five standard strains: TA98, TA100, TA1535, TA1537, and TA1538), Assay Type: Histidine reverse gene mutation, Ames assay, Assay Code: SAL+); “inactive; negative” (Species/Cell Type: Salmonella typhimurium, Assay Type: Forward and reverse gene mutation, body fluid assay, Assay Code: BFU-); “active; positive” (Species/Cell Type: Schizosaccharomyces pombe, Assay Type: Forward gene mutation, Assay Code: YEY+); “active; positive” (Species/Cell Type: Schizosaccharomyces pombe, Assay Type: Reverse gene mutation, Assay Code: YEZ+). The mutagenic call runs as follows: (Species/Cell Type: Syrian hamster embryo (SA7/SHE) cells, Assay Type: Cell transformation, viral enhanced, Assay Code: CT7+) “active; positive”; (Species/Cell Type: Syrian hamster embryo (SHE) cells, Assay Type: Cell transformation, focus assay, Assay Code: CTF+) “active; positive”; (Species/Cell Type: Vicia faba, Assay Type: Chromosome aberrations, Assay Code: VIC+D, Dose Response: With dose response) “active; positive”. Moreover, the call (Species/Cell Type: Nonhuman, Assay Type: In vivo carcinogenicity studies, Assay Code: CCG+) is “active; positive”.

For the compound `O=CNc1nc(-c2cc([N+](=O)[O-])c[nH]2)cs1`, the mutagenic call (Species/Cell Type: Salmonella typhimurium (one or more of the five standard strains: TA98, TA100, TA1535, TA1537, and TA1538), Assay Type: Histidine reverse gene mutation, Ames assay, Assay Code: SALT) is listed as “no conclusion”.

On to `[Cl][Ag]`, for which, where the note is “Species/Cell Type: Bacillus subtilis (H17 vs M45), Assay Type: Rec-assay, spot test, DNA effects (bacterial DNA repair), Assay Code: REW-”, the mutagenic call is “inactive; negative”.
